In patent publication US7863033B2, “Lactobacillus living body activating Lactobacillus preparation and preventive or therapeutic agent for living body infection” (BHPH Company Limited, priority 2003, dated 2011):
Read-outs that look alike come from different tables or passages of the source.

Legend:
bacteria in plaque = assay: Live cell counts in plaque soaked in disinfectant (Test Example 4); format: cell-based; conditions: 60 minutes of immersion
mouse skin wound = assay: Recovery of mouse skin wounds with bactericidal disinfectants (Test Example 5); format: in vivo
[1] = tested on: acute bronchitis patients; conditions: method A: Cefaclor alone; cited from earlier work
acute colitis patients = assay: Treatment of acute infection patients (Example 15, Comparative Example 1); conditions: method A: Cefaclor alone 1000 mg/day for 5 days
acute cystitis patients [2] = conditions: method A: Cephalexin alone; cited from earlier work
conjunctivitis patients = assay: Treatment of acute infection patients (Example 15, Comparative Example 1); conditions: epidemic conjunctivitis; method A: Ofloxacin alone
acute cystitis patients [3] = assay: as above; conditions: method A: minocycline alone 1000 mg/day for 5 days
[4] = applied every morning and night

SMILES: CC(O)C(=O)O.CCOc1ccc2nc3cc(N)ccc3c(N)c2c1 [Acrinol]
- survival of bacteria inside the plaque (bacteria in plaque): half of the cells surviving
- Recovery: Complete recovery (coat regrown) (mouse skin wound; [4]): 40 days
- Recovery: Skin close to original thickness (mouse skin wound; [4]): 15 days
- Recovery: Thin skin overall (mouse skin wound; applied every morning and night to about 1 cm^2 peeled mouse skin): 5 days

SMILES: N[C@@H](C(=O)N[C@@H]1C(=O)N2C(C(=O)O)=C(Cl)CS[C@H]12)c1ccccc1 [Cefaclor]
- Upset of intestinal flora [1]: ++
- Upset of intestinal flora (acute colitis patients): ++

SMILES: CC1=C(C(=O)O)N2C(=O)[C@@H](NC(=O)[C@H](N)c3ccccc3)[C@H]2SC1 [Cephalexin]
- Upset of intestinal flora (acute cystitis patients [2]): ++

SMILES: CC1COc2c(N3CCN(C)CC3)c(F)cc3c(=O)c(C(=O)O)cn1c23 (stereo not drawn) [Ofloxacin]
- Upset of intestinal flora (conjunctivitis patients): −

SMILES: CN(C)c1ccc(O)c2c1C[C@H]1C[C@H]3[C@H](N(C)C)C(O)=C(C(N)=O)C(=O)[C@@]3(O)C(O)=C1C2=O [minocycline]
- Upset of intestinal flora (acute cystitis patients [3]): ++
